Here are results for seven compounds from paper PMC10569036.

The nature of series [1]: shake flask on a mixture of 185; loss from the water phase only; LC-Orbitrap peak areas. The settings on record: room.
A short description of series [2]: shake flask on a mixture of 185; loss from the water phase only; LC-QTOF peak areas. The following applies: room.

Consider `Cc1ccc([N+](=O)[O-])cc1S(=O)(=O)O`, for which, in series [1], the “log partition 1-octanol / HPLC water, unbuffered, traces of methanol / DMSO” value (“log partition 1-octanol / HPLC water” below) is recorded as 1.274 log10; the “log partition butyl acetate / HPLC water, unbuffered, traces of methanol / DMSO” value (from here on “log partition butyl acetate / HPLC water”) turned out to be 1.798 log10; the “log partition chloroform / HPLC water, unbuffered, traces of methanol / DMSO” value (shortened to “log partition chloroform / HPLC water”) came out at 2.228 log10; the “log partition cyclohexane / HPLC water, unbuffered, traces of methanol / DMSO” value (“log partition cyclohexane / HPLC water” for short) is reported as 0.6608 log10. For the same compound, in series [1], the “log partition dichloromethane / HPLC water, unbuffered, traces of methanol / DMSO” value is listed as 2.4 log10; the “log partition n-hexane / HPLC water, unbuffered, traces of methanol / DMSO” value (“log partition n-hexane / HPLC water” for short) is on record as 0.3087 log10; the “log partition n-octane / HPLC water, unbuffered, traces of methanol / DMSO” value (from here on “log partition n-octane / HPLC water”) was 0.3589 log10; the “log partition n-undecane / HPLC water, unbuffered, traces of methanol / DMSO” value (from here on “log partition n-undecane / HPLC water”) was 0.261 log10. In series [1], the “log partition oleylalcohol / HPLC water, unbuffered, traces of methanol / DMSO” value (“log partition oleylalcohol / HPLC water” below) was 0.9359 log10 and the “log partition toluene / HPLC water, unbuffered, traces of methanol / DMSO” value (“log partition toluene / HPLC water” for short) was 1.703 log10. In series [2], the “log partition 1-octanol / HPLC water” value came out at 2.399 log10; the “log partition butyl acetate / HPLC water” value worked out at 2.641 log10; the “log partition chloroform / HPLC water” value is 2.843 log10; the “log partition cyclohexane / HPLC water” value is listed as 0.5479 log10. Also, in series [2], the “log partition dichloromethane / HPLC water, unbuffered, traces of methanol / DMSO” value is recorded as 2.477 log10; the “log partition n-hexane / HPLC water” value came out at 0.3824 log10; the “log partition n-octane / HPLC water” value is 0.4393 log10; the “log partition n-undecane / HPLC water” value was determined as 0.4122 log10. Moreover, in series [2], the “log partition oleylalcohol / HPLC water” value stood at 2.608 log10 and the “log partition toluene / HPLC water” value was 2.304 log10.
As for `C#CC(C)(C)NC(=O)c1cc(Cl)cc(Cl)c1`, in series [1], the “log partition 1-octanol / HPLC water” value was 2.462 log10; the “log partition butyl acetate / HPLC water” value is 2.969 log10; the “log partition chloroform / HPLC water” value was determined as 1.414 log10; the “log partition dichloromethane / HPLC water, unbuffered, traces of methanol / DMSO” value was found to be 3 log10. In series [1], the “log partition oleylalcohol / HPLC water” value is given as 2.211 log10 and the “log partition toluene / HPLC water” value turned out to be 2.779 log10. In series [2], the “log partition 1-octanol / HPLC water” value is recorded as 2.331 log10; the “log partition butyl acetate / HPLC water” value is listed as 2.368 log10; the “log partition chloroform / HPLC water” value amounted to 2.908 log10; the “log partition dichloromethane / HPLC water, unbuffered, traces of methanol / DMSO” value was determined as 2.85 log10. For the same compound, in series [2], the “log partition oleylalcohol / HPLC water” value is 2.008 log10 and the “log partition toluene / HPLC water” value is on record as 2.121 log10.
With `Nc1cc2c3c(c1)C(c1ccccc1)=N[C@@H](NC(=O)c1cccnc1)C(=O)N3CC2`, in series [1], the “log partition 1-octanol / HPLC water” value came out at 1.8 log10; the “log partition butyl acetate / HPLC water” value amounted to 1.849 log10; the “log partition chloroform / HPLC water” value was found to be 1.811 log10; the “log partition cyclohexane / HPLC water” value is reported as -0.6201 log10. In addition, in series [1], the “log partition dichloromethane / HPLC water, unbuffered, traces of methanol / DMSO” value is reported as 1.949 log10; the “log partition n-hexane / HPLC water” value is recorded as -0.5688 log10; the “log partition n-octane / HPLC water” value is given as -0.5885 log10; the “log partition n-undecane / HPLC water” value is reported as -0.7259 log10. Moreover, in series [1], the “log partition oleylalcohol / HPLC water” value worked out at 1.341 log10 and the “log partition toluene / HPLC water” value was determined as 0.4674 log10. In addition, in series [2], the “log partition 1-octanol / HPLC water” value amounted to 1.4 log10; the “log partition butyl acetate / HPLC water” value is 1.224 log10; the “log partition chloroform / HPLC water” value turned out to be 1.953 log10; the “log partition cyclohexane / HPLC water” value was -0.8456 log10. For the same compound, in series [2], the “log partition dichloromethane / HPLC water, unbuffered, traces of methanol / DMSO” value turned out to be 2.001 log10; the “log partition n-hexane / HPLC water” value is -0.527 log10; the “log partition n-octane / HPLC water” value was -1.018 log10; the “log partition n-undecane / HPLC water” value is listed as -1.615 log10. For the same compound, in series [2], the “log partition oleylalcohol / HPLC water” value is reported as 1.111 log10 and the “log partition toluene / HPLC water” value is 0.4515 log10.
Consider `CC(C)N1C(=O)c2ccccc2NS1(=O)=O`, for which, in series [1], the “log partition 1-octanol / HPLC water” value was 0.1891 log10; the “log partition butyl acetate / HPLC water” value was -1.323 log10; the “log partition chloroform / HPLC water” value amounted to 1.041 log10; the “log partition cyclohexane / HPLC water” value was -0.4548 log10. Also, in series [1], the “log partition dichloromethane / HPLC water, unbuffered, traces of methanol / DMSO” value is on record as 0.004436 log10; the “log partition n-hexane / HPLC water” value is -0.9186 log10; the “log partition n-octane / HPLC water” value was -0.654 log10; the “log partition n-undecane / HPLC water” value was -1.481 log10. In addition, in series [1], the “log partition oleylalcohol / HPLC water” value is given as -0.1011 log10 and the “log partition toluene / HPLC water” value is on record as -0.9524 log10. Further, in series [2], the “log partition 1-octanol / HPLC water” value was -1.303 log10; the “log partition butyl acetate / HPLC water” value is -1.026 log10; the “log partition chloroform / HPLC water” value is 0.1169 log10; the “log partition cyclohexane / HPLC water” value was -1.509 log10. For the same compound, in series [2], the “log partition dichloromethane / HPLC water, unbuffered, traces of methanol / DMSO” value came out at 0.3228 log10; the “log partition n-hexane / HPLC water” value is reported as -1.425 log10; the “log partition n-octane / HPLC water” value is listed as -1.602 log10; the “log partition n-undecane / HPLC water” value is given as -1.756 log10. Also, in series [2], the “log partition oleylalcohol / HPLC water” value was -1.143 log10 and the “log partition toluene / HPLC water” value is reported as -0.5708 log10.
For the compound `COC(=O)C(C)N(C(=O)c1ccco1)c1c(C)cccc1C` (centres unmarked), in series [1], the “log partition 1-octanol / HPLC water” value was determined as 1.653 log10; the “log partition butyl acetate / HPLC water” value worked out at 2.039 log10; the “log partition chloroform / HPLC water” value was found to be 1.758 log10; the “log partition dichloromethane / HPLC water, unbuffered, traces of methanol / DMSO” value is listed as 1.796 log10. For the same compound, in series [1], the “log partition oleylalcohol / HPLC water” value is given as 1.315 log10 and the “log partition toluene / HPLC water” value is listed as 1.918 log10. In series [2], the “log partition 1-octanol / HPLC water” value came out at 2.113 log10; the “log partition butyl acetate / HPLC water” value came out at 2.322 log10; the “log partition chloroform / HPLC water” value was determined as 2.434 log10; the “log partition dichloromethane / HPLC water, unbuffered, traces of methanol / DMSO” value is 2.829 log10. In addition, in series [2], the “log partition oleylalcohol / HPLC water” value is on record as 2.215 log10 and the “log partition toluene / HPLC water” value is 2.516 log10.
Take `c1coc(-c2nc3ccccc3[nH]2)c1`: in series [1], the “log partition 1-octanol / HPLC water” value came out at 1.137 log10; the “log partition butyl acetate / HPLC water” value is recorded as 1.189 log10; the “log partition chloroform / HPLC water” value is listed as 0.9478 log10; the “log partition cyclohexane / HPLC water” value is on record as -0.1735 log10. Besides, in series [1], the “log partition dichloromethane / HPLC water, unbuffered, traces of methanol / DMSO” value is listed as 1.025 log10; the “log partition n-hexane / HPLC water” value was -0.2475 log10; the “log partition n-octane / HPLC water” value is on record as -0.314 log10; the “log partition n-undecane / HPLC water” value is -0.8377 log10. Also, in series [1], the “log partition oleylalcohol / HPLC water” value was 1.389 log10 and the “log partition toluene / HPLC water” value amounted to 0.5283 log10. Moreover, in series [2], the “log partition 1-octanol / HPLC water” value turned out to be 1.514 log10; the “log partition butyl acetate / HPLC water” value came out at 1.818 log10; the “log partition chloroform / HPLC water” value was found to be 1.228 log10; the “log partition cyclohexane / HPLC water” value was -0.8199 log10. Further, in series [2], the “log partition dichloromethane / HPLC water, unbuffered, traces of methanol / DMSO” value was determined as 1.187 log10; the “log partition n-hexane / HPLC water” value is reported as -1.048 log10; the “log partition n-octane / HPLC water” value was -0.9024 log10; the “log partition n-undecane / HPLC water” value is reported as -1.111 log10. In series [2], the “log partition oleylalcohol / HPLC water” value came out at 1.545 log10 and the “log partition toluene / HPLC water” value came out at 0.6693 log10.
`CCNC(=O)C1CC(C)CCC1C(C)C` (centres unmarked): in series [1], the “log partition 1-octanol / HPLC water” value is listed as 0.07926 log10; the “log partition butyl acetate / HPLC water” value is -0.1005 log10; the “log partition chloroform / HPLC water” value is reported as 0.05708 log10; the “log partition dichloromethane / HPLC water, unbuffered, traces of methanol / DMSO” value is given as -0.08543 log10. In addition, in series [1], the “log partition oleylalcohol / HPLC water” value is given as -0.02549 log10 and the “log partition toluene / HPLC water” value is recorded as -0.1964 log10. Moreover, in series [2], the “log partition 1-octanol / HPLC water” value came out at 1.736 log10; the “log partition butyl acetate / HPLC water” value was 1.72 log10; the “log partition chloroform / HPLC water” value is on record as 1.704 log10; the “log partition dichloromethane / HPLC water, unbuffered, traces of methanol / DMSO” value was 1.778 log10. Also, in series [2], the “log partition oleylalcohol / HPLC water” value came out at 1.811 log10 and the “log partition toluene / HPLC water” value came out at 1.717 log10.
